According to ChEMBL document CHEMBL1667784, “Synthesis and structure-activity relationship of 2-thiopyrimidine-4-one analogs as antimicrobial and anticancer agents” (Eur J Med Chem, 2011):
≈ marks a conversion by molar mass, not a printed value.

Tests used:
[1] = system: Moraxella catarrhalis; experiment: Antimicrobial activity against Branhamella catarrhalis assessed as growth inhibition at 10 ug/ml by agar dilution method; format: functional
[2] = system: Bacillus subtilis; experiment: Antimicrobial activity against Bacillus subtilis ATCC 6633 assessed as growth inhibition at 10 ug/ml by agar dilution method; format: functional
[3] = system: Staphylococcus epidermidis; experiment: Antimicrobial activity against Staphylococcus epidermidis ATCC 12228 assessed as growth inhibition at 10 ug/ml by agar dilution method; format: functional
[4] = system: Neisseria mucosa; experiment: Antimicrobial activity against Neisseria mucosa assessed as growth inhibition at 10 ug/ml by agar dilution method; format: functional
[5] = system: Edwardsiella tarda; experiment: Antimicrobial activity against Edwardsiella tarda assessed as growth inhibition at 10 ug/ml by agar dilution method; format: functional
[6] = system: Streptococcus pyogenes; experiment: Antimicrobial activity against Streptococcus pyogenes assessed as growth inhibition at 10 ug/ml by agar dilution method; format: functional
[7] = system: Staphylococcus aureus; experiment: Antimicrobial activity against Staphylococcus aureus ATCC 25923 assessed as growth inhibition at 10 ug/ml by agar dilution method; format: functional
[8] = Cytotoxicity against human HuCCa1 cells after 3 days by MTT assay; format: functional, cell-based; details: HuCC-A1, 72 h
[9] = system: Neisseria mucosa; experiment: Antimicrobial activity against Neisseria mucosa assessed as growth inhibition at 128 ug/ml by agar dilution method; format: functional
[10] = system: Moraxella catarrhalis; experiment: Antimicrobial activity against Branhamella catarrhalis assessed as growth inhibition at 128 ug/ml by agar dilution method; format: functional
[11] = system: KB; experiment: Cytotoxicity against human KB cells after 3 days by MTT assay; format: functional, cell-based; details: 72 h
[12] = system: HepG2; experiment: Cytotoxicity against human HepG2 cells after 3 days by MTT assay; format: functional, cell-based; details: HepG2, 72 h
[13] = system: A549; experiment: Cytotoxicity against human A549 cells after 3 days by MTT assay; format: functional, cell-based; details: A549, 72 h
[14] = system: P388; experiment: Cytotoxicity against mouse P388 cells after 3 days by MTT assay; format: functional, cell-based; details: P388, 72 h
[15] = system: Plasmodium falciparum; experiment: Antimalarial activity against chloquine-resistant Plasmodium falciparum T9.94 infected in human erythrocyte assessed as decrease in parasite growth after 48 hrs by microscopy; format: functional, organism-based; details: T9.94, 48 h
[16] = system: HL-60; experiment: Cytotoxicity against human HL60 cells after 3 days by MTT assay; format: functional, cell-based; details: HL-60, 72 h
[17] = system: H69AR; experiment: Cytotoxicity against human H69AR cells after 3 days by MTT assay; format: functional, cell-based; details: 72 h
[18] = system: MDA-MB-231; experiment: Cytotoxicity against human MDA-MB-231 cells after 3 days by MTT assay; format: functional, cell-based; details: MDA-MB-231, 72 h
[19] = system: T47D; experiment: Cytotoxicity against human T47D cells after 3 days by MTT assay; format: functional, cell-based; details: 72 h
[20] = Cytotoxicity against human HCC-S102 cells after 3 days by MTT assay; format: functional, cell-based; details: HCC-S102, 72 h
[21] = system: Streptococcus pyogenes; experiment: Antimicrobial activity against Streptococcus pyogenes assessed as growth inhibition at 128 ug/ml by agar dilution method; format: functional
[22] = system: HeLa; experiment: Cytotoxicity against human HeLa cells after 3 days by MTT assay; format: functional, cell-based; details: 72 h
[23] = system: Candida albicans; experiment: Antifungal activity against Candida albicans assessed as growth inhibition at 128 ug/ml by agar dilution method; format: functional
[24] = system: Moraxella catarrhalis; experiment: Antimicrobial activity against Branhamella catarrhalis assessed as growth inhibition at 64 ug/ml by agar dilution method; format: functional

Row | SMILES | IC50 [8] | inhibition at 128 µg/mL [9] | inhibition at 128 µg/mL [10] | IC50 [11] | IC50 [12] | IC50 [13] | IC50 [14] | IC50 [15] | IC50 [16] | IC50 [17] | IC50 [18] | IC50 [19] | IC50 [20] | inhibition at 128 µg/mL [21] | IC50 [22] | other results
1 | CC1(C)S[C@@H]2[C@H](NC(=O)[C@H](N)c3ccccc3)C(=O)N2[C@H]1C(=O)O [AMPICILLIN] | – | – | – | – | – | – | – | – | – | – | – | – | – | – | – | inhibition at 10 µg/mL [1]: 100%; inhibition at 10 µg/mL [2]: 100%; inhibition at 10 µg/mL [3]: 100%; inhibition at 10 µg/mL [4]: 100%; inhibition at 10 µg/mL [5]: 100%; inhibition at 10 µg/mL [6]: 100%; inhibition at 10 µg/mL [7]: 100%
2 | CCCCSc1nccc(=O)[nH]1 | > 50 mg/L | 25% | 100% | 27 mg/L (≈ 147 µM) | > 50 mg/L | > 50 mg/L | > 50 mg/L | 10 µM | > 50 mg/L | > 50 mg/L | > 50 mg/L | 5 mg/L (≈ 27.1 µM) | > 50 mg/L | 25% | > 50 mg/L | –
3 | CCC(C)Sc1nccc(=O)[nH]1 (configuration not stated) | > 50 mg/L | – | – | – | > 50 mg/L | > 50 mg/L | – | 10 µM | – | – | – | – | – | – | – | –
4 | O=c1ccnc(SC23CC4CC(CC(C4)C2)C3)[nH]1 | > 50 mg/L | 25% | 75% | > 50 mg/L | 32.5 mg/L (≈ 124 µM) | > 50 mg/L | 36.9 mg/L (≈ 141 µM) | 10 µM | > 50 mg/L | 35 mg/L (≈ 133 µM) | > 50 mg/L | 32 mg/L (≈ 122 µM) | > 50 mg/L | 25% | > 50 mg/L | –
5 | O=c1ccnc(SCC2CCCCC2)[nH]1 | > 50 mg/L | 25% | – | > 50 mg/L | > 50 mg/L | > 50 mg/L | 40.4 mg/L (≈ 180 µM) | 10 µM | > 50 mg/L | 50 mg/L (≈ 223 µM) | > 50 mg/L | > 50 mg/L | > 50 mg/L | 100% | > 50 mg/L | inhibition at 128 µg/mL [23]: 75%; inhibition at 64 µg/mL [24]: 100%
6 | COc1cc([C@@H]2c3cc4c(cc3[C@@H](O[C@@H]3O[C@@H]5CO[C@@H](C)O[C@H]5[C@H](O)[C@H]3O)[C@H]3COC(=O)[C@H]23)OCO4)cc(OC)c1O [ETOPOSIDE] | 4 mg/L (≈ 6.8 µM) | – | – | 0.25 mg/L (≈ 0.425 µM) | 21 mg/L (≈ 35.7 µM) | 0.6 mg/L (≈ 1.02 µM) | 0.12 mg/L (≈ 0.204 µM) | – | 0.85 mg/L (≈ 1.44 µM) | 30 mg/L (≈ 51 µM) | 0.24 mg/L (≈ 0.408 µM) | 0.05 mg/L (≈ 0.085 µM) | 6 mg/L (≈ 10.2 µM) | – | 0.38 mg/L (≈ 0.646 µM) | –
7 | O=c1ccnc(SCc2ccccc2)[nH]1 | > 50 mg/L | – | 50% | > 50 mg/L | > 50 mg/L | > 50 mg/L | > 50 mg/L | 10 µM | > 50 mg/L | > 50 mg/L | > 50 mg/L | > 50 mg/L | > 50 mg/L | 25% | > 50 mg/L | –
